Results as given in publication PMC11965454, “Simultaneous determination of lesinurad and co-administered drugs used in management of gout comorbidities to uncover potential pharmacokinetic interaction in rat plasma” (Scientific Reports, 2025).
Where two headings read alike, the source gives them in different places.

Tests used:
[1] = Stability of the studied drugs in rat plasma (freeze-thaw, bench-top, long-term), HPLC-DAD; assay type: in vitro ADME; settings: n = 3; for recovery at 6 h, 1000 ng/ml / recovery at 35 days, 1000 ng/ml / recovery at 1000 ng/ml: rat plasma; for recovery at 6 h, 1000 ng/ml / recovery at 6 h, 10000 ng/ml / recovery at 6 h, 25000 ng/ml: 6 h at room temperature; for recovery at 35 days, 1000 ng/ml / recovery at 35 days, 10000 ng/ml / recovery at 35 days, 25000 ng/ml: 35 days at -20 °C; for recovery at 1000 ng/ml / recovery at 10000 ng/ml / recovery at 25000 ng/ml: three cycles -20 °C / room temperature; for recovery at 6 h, 10000 ng/ml / recovery at 35 days, 10000 ng/ml / recovery at 10000 ng/ml: rat plasma, 10,000 ng/ml; for recovery at 6 h, 25000 ng/ml / recovery at 35 days, 25000 ng/ml / recovery at 25000 ng/ml: rat plasma, 25,000 ng/ml
Procedure: Stability studies were conducted by preparing low, medium and high plasma QC samples in triplicates under different conditions and comparing them with freshly prepared quality control samples. Namely, three freeze-thaw cycles (freeze at -20 °C then thaw at room temperature for three cycles), bench-top stability testing for 6 h at room temperature and long-term stability testing for 35 days at -20 °C.

[2] = Stock solution stability (methanol), HPLC-DAD; assay type: physicochemical; settings: stock solution in methanol, n = 3; for recovery at 6 h, 1000 ng/ml / recovery at 6 h, 10000 ng/ml / recovery at 6 h, 25000 ng/ml: 6 h at room temperature, read-out: Stock solution stability (room temp.) Recovery%; for recovery at 30 days, 1000 ng/ml / recovery at 30 days, 10000 ng/ml / recovery at 30 days, 25000 ng/ml: 30 days at 4 °C; for recovery at 6 h, 10000 ng/ml / recovery at 30 days, 10000 ng/ml: 10,000 ng/ml; for recovery at 6 h, 25000 ng/ml / recovery at 30 days, 25000 ng/ml: 25,000 ng/ml
[3] = Drug interaction pharmacokinetic study of LES and ETC, single oral dose, plasma levels by HPLC-DAD; assay type: in vivo, Sprague-Dawley rats; settings: for k el: read-out: Ke (converted); for AUC: n=5; for Change of Ke: after repeated administration of the other drug vs alone; for Change of area under the curve (AUC): single oral dose following the repeated administration of the other drug vs alone
Source text: The HPLC-DAD system consisted of Agilent 1200 series (auto-injector, quaternary pump, vacuum degasser and diode array and multiple wavelength detector G1315 C/D and G1365 C/D) connected to a computer loaded with Agilent ChemStation Software (Agilent Technologies, Santa Clara, CA, USA). […] The chromatographic separation was achieved using a Zorbax Eclipse Plus C18 (4.6 × 250 mm, 5 μm particle size) column attached to Zorbax Eclipse Plus C18 (4.6 × 12.5 mm, 5 μm particle size) analytical guard column (Agilent Technologies, Santa Clara, CA, USA). The gradient elution was composed of the mobile phase: acetonitrile and 0.05 M potassium dihydrogen orthophosphate eluted in the ratios and at flow rates listed in Table 1 using an injection volume of 50 µL. All determinations were performed at 25 °C. All pH measurements were made using a Hanna pH meter, (RI, USA). Calibration was done using standard buffers of pH 4 and 7 at room temperature.
The internal standard DIC (0.05 mL) was added to each 0.2 mL rat plasma sample. To the rat plasma sample, 0.6 mL of acetonitrile were added. In order to equalize the final volumes in both; the standard calibration curve samples and the rat plasma samples, up to 1 mL of methanol were added. The samples were covered, vortexed for 1 min at high speed followed by centrifugation for 10 min at ~ 2500 × g. The organic layer was transferred to HPLC autosampler vials. For each sample, 50 µL were directly injected into the HPLC system.
The animal study has been designed and the results have been reported in accordance with the ARRIVE Guidelines. All animal experiments were conducted according to an experimental protocol approved by the Institutional Animal Care and Use Committee at Alexandria University (Serial Number 135) and in compliance with the Guide for the Care and Use of Laboratory Animals of the Institute for Laboratory Animal Research of the National Academy of Sciences, U.S.A. Animals were obtained from the animal facility at the Research and Innovation Hub at Alamein International University. Single dose pharmacokinetics of LES and ETC, as well as the effect of repeated administration of one on the PK parameters of the other reflecting the PK interactions if any, were assessed as described in our previous work[33]. Since the parameters of the oral pharmacokinetic investigation in experimental animals, in terms of feeding and fasting durations, oral dosing timing and volumes, blood sampling, as well as time intervals of redosing, can be controlled with relative ease, rat group sizes of 5–6 were sufficient for the detection of statistical difference in previous studies carried out in our laboratory[34],[35], and in other groups[36],[37], including studies that looked into the pharmacokinetics of ETC and LES[27],[38]. As will be seen below, the experiment was designed for paired comparison with before and ater measurements from the same rats, further increasing the power for statistical analysis. As such, ten healthy adult male Sprague-Dawley rats (8 weeks of age, ~ 250 g weight) were randomized into two groups of five rats each: LES PK group and ETC PK group. No criteria were set for animal allocation per group. Rats were housed in polycarbonate cages on wood shavings bedding at the animal facility at Alamein International University under controlled temperature (23 °C) and humidity (45%) and a 12-hour dark/light cycle. Rats were given ad libitum access to drinking water and commercial rodent chow (21% protein, Al-Fajr Animal Feed, Beheira, Egypt) prior to and during the experiment. The PK parameters of single doses of each drug were determined at baseline in the respective group and once more after seven days of administration of the other drug, without a washout period. To elaborate, on Day 0, following twelve hours of fasting, rats in each group received a single dose of the respective drug by oral gavage (15 mg/Kg for LES[27], and 5 mg/Kg for ETC[39]). […]

[4] = system: plasma albumin; settings: cited from earlier work
[5] = male, Sprague-Dawley, ETC 5 mg/Kg single oral dose alone (Day 0), rat plasma, Mean ± SEM
[6] = male, Sprague-Dawley, plasma, LES 15 mg/Kg single oral dose alone (Day 0), rat, Mean ± SEM

recovery at 6 h, 1000 ng/ml [1] | recovery at 35 days, 1000 ng/ml [1] | recovery at 1000 ng/ml [1] | recovery at 6 h, 10000 ng/ml [1] | recovery at 35 days, 10000 ng/ml [1] | recovery at 10000 ng/ml [1] | recovery at 6 h, 25000 ng/ml [1] | recovery at 35 days, 25000 ng/ml [1] | recovery at 25000 ng/ml [1] | recovery at 6 h, 1000 ng/ml [2] | recovery at 30 days, 1000 ng/ml [2] | recovery at 6 h, 10000 ng/ml [2] | recovery at 30 days, 10000 ng/ml [2] | recovery at 6 h, 25000 ng/ml [2] | recovery at 30 days, 25000 ng/ml [2] | Change of Ke ([3]; rat) | Change of area under the curve (AUC) ([3]; rat) | SMILES | other results
105% | 104% | 91.9% | 96.8% | 97.6% | 94.3% | 94.2% | 92.6% | 103% | 101% | 102% | 102% | 97.9% | 102% | 98.9% |  |  | COC(=O)[C@@H]1CC2=CC(=O)CC[C@]2(C)[C@@]23O[C@@H]2C[C@@]2(C)[C@@H](CC[C@@]24CCC(=O)O4)[C@H]13 [EPL, eplerenone] | 
97.5% | 95.8% | 98% | 92.8% | 94.1% | 95.3% | 92.7% | 90.4% | 96.5% | 99.5% | 98.3% | 99.5% | 96.4% | 98.8% | 99.2% | neither t1/2 nor Ke changed | increased | Cc1ccc(-c2ncc(Cl)cc2-c2ccc(S(C)(=O)=O)cc2)cn1 [ETC, etoricoxib] | Ka ([3]; ETC 5 mg/Kg single oral dose alone (Day 0), rat, method of residuals, Mean ± SEM): 1.82 ± 0.55 h⁻¹; k el ([3]; male, Sprague-Dawley, plasma, ETC 5 mg/Kg single oral dose alone (Day 0), rat, Mean ± SEM): 4.17e-05 s⁻¹; half-life ([3]; male, Sprague-Dawley, plasma, ETC 5 mg/Kg single oral dose alone (Day 0), rat, one phase decay, Mean ± SEM): 4.88 ± 0.56 h; Tmax ([3]; male, Sprague-Dawley, plasma, ETC 5 mg/Kg single oral dose alone (Day 0), rat, read-out: Tmax): 1 h; Cmax [3, 5]: 1170 ± 148 ng/mL; AUC [3, 5]: 11200 ng·h/mL; Change of absorption rate constant (Ka) ([3]; rat, ETC in the continued presence of LES vs alone): increased Ka; Binding to plasma albumin ([4]; ref PMID: 18840026): extensively bound to plasma albumin
92.5% | 93.8% | 91.6% | 92.5% | 94.7% | 93.8% | 96.1% | 94.6% | 92.7% | 97.3% | 98.7% | 96.5% | 97.2% | 94.8% | 99.2% | neither t1/2 nor Ke changed | increased | O=C(O)CSc1nnc(Br)n1-c1ccc(C2CC2)c2ccccc12 [LES, lesinurad] | Tmax ([3]; LES 15 mg/Kg single oral dose alone (Day 0), rat): 2 h; Ka ([3]; LES 15 mg/Kg single oral dose alone (Day 0), rat, Mean ± SEM): 3.32 ± 0.78 h⁻¹; half-life [3, 6]: 3.96 ± 1.07 h; k el [3, 6]: 7.78e-05 s⁻¹; AUC ([3]; male, Sprague-Dawley, LES 15 mg/Kg single oral dose alone (Day 0), rat plasma, Mean ± SEM): 9600 ± 1890 ng·h/mL; Change of Cmax ([3]; rat, LES after repeated ETC administration vs alone): sharp increase in Cmax; Binding to plasma albumin ([4]; ref PMID: 31191704): extensively bound to plasma albumin
